Laboratory results published in patent publication US10654802B2, “Indoline derivatives and method for using and producing the same” (ARIZONA BOARD OF REGENTS ON BEHALF OF THE UNIVERSITY OF …, priority 2016, dated 2020).

Molecular target: T1, Nox4 (Homo sapiens, UniProt Q9NPH5)
T1 construct: expressed in transfected cells
T1 sequence (Q9NPH5 1-578): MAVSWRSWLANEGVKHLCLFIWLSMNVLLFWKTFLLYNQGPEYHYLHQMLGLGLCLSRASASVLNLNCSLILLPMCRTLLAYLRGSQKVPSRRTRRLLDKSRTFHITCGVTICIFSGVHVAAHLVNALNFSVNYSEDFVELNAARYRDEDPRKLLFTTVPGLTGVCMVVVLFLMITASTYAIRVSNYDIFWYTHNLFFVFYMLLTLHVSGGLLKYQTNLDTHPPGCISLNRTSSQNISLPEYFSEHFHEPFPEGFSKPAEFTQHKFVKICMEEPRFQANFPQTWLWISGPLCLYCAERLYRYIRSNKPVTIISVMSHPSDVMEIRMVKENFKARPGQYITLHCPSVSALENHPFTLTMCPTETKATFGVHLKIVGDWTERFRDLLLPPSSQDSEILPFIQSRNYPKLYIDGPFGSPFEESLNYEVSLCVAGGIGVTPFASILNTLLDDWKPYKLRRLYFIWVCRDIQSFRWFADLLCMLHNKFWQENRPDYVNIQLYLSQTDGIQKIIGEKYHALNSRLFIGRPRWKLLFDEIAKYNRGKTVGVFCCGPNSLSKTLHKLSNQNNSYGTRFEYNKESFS
T1 sequence (P13498 1-195 partner): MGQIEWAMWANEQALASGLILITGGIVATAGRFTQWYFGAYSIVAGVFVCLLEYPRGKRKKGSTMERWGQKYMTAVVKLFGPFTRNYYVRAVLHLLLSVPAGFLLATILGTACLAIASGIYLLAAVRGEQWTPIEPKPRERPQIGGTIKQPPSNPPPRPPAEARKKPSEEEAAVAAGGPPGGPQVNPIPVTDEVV
Assay: Inhibition of Nox4-dependent H2O2 production in HEK/Nox4 cells, Amplex Red assay
Format: cell-based
Settings: for remaining activity at 1 µM: 1 μM final concentration; for remaining activity at 1 µM / remaining activity at 5 µM / remaining activity at 10 µM: 1 h, HEK/Nox4 cells, DMSO vehicle = 1.000, n = 3-10, read-out: H2O2 production relative to vehicle control, Mean; for remaining activity at 5 µM: 5 μM final concentration; for remaining activity at 10 µM: 10 μM final concentration
Experimental: A high-throughput screening (HTS) assay was established for Nox4 inhibition, utilizing HEK293 cells that stably over-express Nox4 (HEK/Nox4 cells), which generate high levels of H2O2(Cheng G et al, Gene: 2001, p. 131-140). Over 30,000 compounds have been screened and medicinal chemistry efforts have led to the synthesis of numerous analogs and the identification of a chemically distinct series of selective Nox4 inhibitors. […] IC-50 was evaluated for UANox048 (FIG. 1B).
HEK cells stably transfected to overexpress Nox4 were treated with varying concentrations of test compounds, DPI (all-Nox inhibitor positive control), or DMSO (vehicle control) and incubated for 1 h (FIG. 1). (FIG. 1A) H2O2 presence was evaluated by Amplex Red assay. […] Values represent means±SEM; n=4. P values were calculated by student's two-tailed t test. *p<0.05, **p<0.01, *** p<0.001.

Row | SMILES | remaining activity at 1 µM [%] | remaining activity at 5 µM [%] | remaining activity at 10 µM [%] | H2O2 generation by HEK/Nox4 cells (varying concentrations, Amplex Red, FIG. 1A)
1 | O=C(CNC1CCCCCC1)N1CCc2ccccc21 [UANOX023, 2-(cycloheptylamino)-1-(indolin-1-yl)ethan-1-one] | 98.4 | 108 | 100 | –
2 | CC(C)(CNS(=O)(=O)c1ccc(Oc2ccc(C(F)(F)F)cn2)cc1)N1CCc2ccccc21 [UANOX088] | 102 | 90.3 | 79.6 | –
3 | CCN(CC)S(=O)(=O)N1CCN(CCC(=O)N2CCc3ccccc32)CC1 [UANOX029, N,N-diethyl-4-(3-(indolin-1-yl)-3-oxopropyl)piperazine-1-sulfonamide] | 112 | 112 | 110 | –
4 | O=C(CCN1CCN(c2ncccn2)CC1)N1CCc2ccccc21 [UANOX022, 1-(indolin-1-yl)-3-(4-(pyrimidin-2-yl)piperazin-1-yl)propan-1-one] | 111 | 107 | 110 | –
5 | O=S(=O)(NCCN1CCc2ccccc21)N1CCOCC1 [UANOX012, N-(2-(indolin-1-yl)ethyl)morpholine-4-sulfonamide] | 96 | 95 | 85.7 | –
6 | CC(CNS(=O)(=O)N1CCN(C)CC1)N1CCc2ccccc21 (stereo not shown) [UANOX037] | 97.2 | 79.3 | 77.3 | –
7 | CC(CNS(=O)(=O)N1CCCC1)N1CCc2ccccc21 (stereo not shown) [UANOX008, N-(2-(indolin-1-yl)propyl)pyrrolidine-1-sulfonamide] | 98.4 | 77.9 | 67.8 | –
8 | CC(CNC(=O)c1csc(-c2ccncc2)n1)N1CCc2ccccc21 (stereo not shown) [UANOX033, N-(2-(indolin-1-yl)propyl)-2-(pyridin-4-yl)thiazole-4-carboxamide] | 100 | 91.2 | 86.7 | –
9 | CCN(CC)S(=O)(=O)NCCN1CCc2ccccc21 [UANOX001, N—(N,N-diethylaminosulfonyl)-2-(indolin-1-yl)ethan-1-amine] | 99.5 | 106 | 103 | –
10 | CC(CNC(=O)c1csc(-c2ccc(C(F)(F)F)cc2)n1)N1CCc2ccccc21 (stereo not shown) [UANOX056, N-(2-(indolin-1-yl)propyl)-2-(4-(trifluoromethyl)phenyl)thiazole-4-carboxamide] | 95.9 | 88.4 | 83.4 | –
11 | CN1CCN(C(=O)NCCN2CCc3ccccc32)CC1 [UANOX011, N-(2-(indolin-1-yl)ethyl)-4-methylpiperazine-1-carboxamide] | 98 | 97.9 | 95.6 | –
12 | CC(CNC(=O)N1CCN(C)CC1)N1CCc2ccccc21 (stereo not shown) [UANOX019, N-(2-(indolin-1-yl)propyl)-4-methylpiperazine-1-carboxamide] | 91.5 | 81.4 | 74.1 | –
13 | O=S(=O)(c1ccc(F)cc1)N1CCN(CCN2CCc3ccccc32)CC1 [UANOX064, 1-(2-(4-((4-fluorophenyl)sulfonyl)piperazin-1-yl)ethyl)indoline] | 86.3 | 75.7 | 72.4 | –
14 | CC(C)(CNS(=O)(=O)c1ccc(F)c(F)c1)N1CCc2ccccc21 [UANOX087, 3,4-difluoro-N-(2-(indolin-1-yl)-2-methylpropyl)benzenesulfonamide] | 99.7 | 88.3 | 74.1 | –
15 | CC(C)(CNS(=O)(=O)c1ccc(C(F)(F)F)cc1)N1CCc2ccccc21 [UANOX084, N-(2-(indolin-1-yl)-2-methylpropyl)-4-(trifluoromethyl)benzenesulfonamide] | 90.3 | 77.5 | 67.5 | –
16 | O=S(=O)(NCCN1CCc2ccccc21)c1ccc(Oc2ccc(C(F)(F)F)cn2)cc1 [UANOX080, N-(2-(indolin-1-yl)ethyl)-4-((5-(trifluoromethyl)pyridin-2-yl)oxy)benzenesulfonamide] | 85.5 | 60.1 | 49.1 | –
17 | N#Cc1ccc(S(=O)(=O)NCCN2CCc3ccccc32)cc1 [UANOX082, 4-cyano-N-(2-(indolin-1-yl)ethyl)benzenesulfonamide] | 90.8 | 70.7 | 60.6 | –
18 | CC(CNS(=O)(=O)c1ccc(Oc2ccccc2)cc1)N1CCc2ccccc21 (stereo not shown) [UANOX071, N-(2-(indolin-1-yl)propyl)-4-phenoxybenzenesulfonamide] | 90.8 | 85.6 | 77 | –
19 | CC(CNS(=O)(=O)c1ccc(OC(F)(F)F)cc1)N1CCc2ccccc21 (stereo not shown) [UANOX049, N-(2-(indolin-1-yl)propyl)-4-(trifluoromethoxy)benzenesulfonamide] | 87.1 | 78.4 | 71.4 | –
20 | CC(CNC(=O)c1csc(-c2ccccc2)n1)N1CCc2ccccc21 (stereo not shown) [UANOX055, N-(2-(indolin-1-yl)propyl)-2-phenylthiazole-4-carboxamide] | 90.2 | 90.8 | 86.8 | –
21 | O=S(=O)(NCCN1CCc2ccccc21)c1ccc(C(F)(F)F)cc1 [UANOX075, 4-trifluoromethyl-N-(2-(indolin-1-yl)ethyl)benzenesulfonamide] | 82.3 | 72.1 | 67.7 | –
22 | CN(C)S(=O)(=O)N1CCN(CC(=O)N2CCc3ccccc32)CC1 [UANOX028, 4-(2-(indolin-1-yl)-2-oxoethyl)-N,N-dimethylpiperazine-1-sulfonamide] | 108 | 112 | 111 | –
23 | CN(C)S(=O)(=O)NCCN1CCc2ccccc21 [UANOX003, N—(N,N-dimethylaminosulfonyl)-2-(indolin-1-yl)ethan-1-amine] | 101 | 103 | 103 | –
24 | CC(C)(CNS(=O)(=O)c1ccc(OC(F)(F)F)cc1)N1CCc2ccccc21 [UANOX090, N-(2-(indolin-1-yl)-2-methylpropyl)-4-(trifluoromethoxy)benzenesulfonamide] | 104 | 88.7 | 74.5 | –
25 | O=S(=O)(NCCN1CCc2ccccc21)N1CCCC1 [UANOX004, N-(2-(indolin-1-yl)ethyl)pyrrolidine-1-sulfonamide] | 99.4 | 101 | 88.2 | –
26 | O=S(=O)(c1ccc(OC(F)(F)F)cc1)N1CCN(CCN2CCc3ccccc32)CC1 [UANOX062, 1-(2-(4-((4-(trifluoromethoxy)phenyl)sulfonyl)piperazin-1-yl)ethyl)indoline] | 88.7 | 75.8 | 66.4 | –
27 | COc1ccc(S(=O)(=O)NCC(C)N2CCc3ccccc32)cc1 (stereo not shown) [UANOX034, N-(2-(indolin-1-yl)propyl)-4-methoxybenzenesulfonamide] | 95.9 | 80.3 | 70.6 | dose-dependent decrease
28 | Fc1ccccc1CN1CCN(CCN2CCc3ccccc32)CC1 [UANOX067, 1-(2-(4-(2-fluorobenzyl)piperazin-1-yl)ethyl)indoline] | 93.9 | 91.2 | 85.1 | –
29 | CC(CNS(=O)(=O)c1ccc(C#N)cc1)N1CCc2ccccc21 (stereo not shown) [UANOX073] | 94.2 | 75.9 | 74.4 | –
30 | CCN(CC)C(=O)NCC(C)N1CCc2ccccc21 (stereo not shown) [UANOX006, 1,1-diethyl-3-(2-(indolin-1-yl)propyl)urea] | 82.2 | 82.5 | 74.1 | –
